Assays:
S. pneumoniae D39V = test: fitness (endpoint OD595 vs no drug) (fraction); higher = more growth
Summary of the method: (§1)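 Bacterial fitness was scored as optical density at the stationary-phase transition relative to the robust mean of no-drug control wells. Scores are capped at 1. The growth data were OD595 readings every 30 min for 14 h at 37 °C, background-subtracted against the first reading, from 384-well plates inoculated at OD595 0.01 in TSB, LB Lennox or CY.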

B. subtilis 168 = test: as above
Summary of the method: as §1
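Note: OD595 on entry to stationary phase over no-drug wells; at most 1.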

O=C(O)[C@H]1/C(=C/CO)O[C@@H]2CC(=O)N21 [Clavulanic acid] + Clc1ccc(COC(Cn2ccnc2)c2ccc(Cl)cc2Cl)c(Cl)c1 [Miconazole]
fitness, S. pneumoniae D39V
Conditions	partner 1.073 µg/mL	partner 1.25 µg/mL	partner 2.145 µg/mL	partner 2.5 µg/mL	partner 4.29 µg/mL	partner 5 µg/mL
first compound 0.5 µg/mL	≥ 1	0.956	0.973	0.981	0.924	0.94
first compound 1 µg/mL	≥ 1	0.876	0.923	0.873	0.883	0.838
first compound 2 µg/mL	0.898	0.715	0.787	0.66	0.754	0.653

O=C(O)[C@H]1/C(=C/CO)O[C@@H]2CC(=O)N21 [Clavulanic acid] + CCC[C@@H]1C[C@@H](C(=O)N[C@@H]([C@H]2O[C@H](SC)[C@H](O)[C@@H](O)[C@H]2O)[C@@H](C)O)N(C)C1 [Lincomycin]
fitness
Conditions	partner 0.1 µg/mL	partner 0.2 µg/mL	partner 0.215 µg/mL	partner 0.4 µg/mL	partner 0.43 µg/mL	partner 0.8 µg/mL	partner 0.86 µg/mL
B. subtilis 168, first compound 1.5 µg/mL	0.91	0.868	–	0.892	–	–	–
B. subtilis 168, first compound 3 µg/mL	0.835	0.837	–	0.838	–	–	–
B. subtilis 168, first compound 6 µg/mL	0.822	0.686	–	0.704	–	–	–
S. pneumoniae D39V, first compound 0.5 µg/mL	–	0.571	0.828	0.326	0.726	0.0312	0.39
S. pneumoniae D39V, first compound 1 µg/mL	–	0.591	0.809	0.354	0.687	0.186	0.332
S. pneumoniae D39V, first compound 2 µg/mL	–	0.406	0.726	0.258	0.606	0.045	0.21

fitness, B. subtilis 168, one replicate
Conditions	first compound 1.5 µg/mL	first compound 3 µg/mL	first compound 6 µg/mL
partner 0.8 µg/mL	0.832	0.761	0.729
partner 1.6 µg/mL	0.913	0.802	0.708

O=C(O)[C@H]1/C(=C/CO)O[C@@H]2CC(=O)N21 [Clavulanic acid] + CO[C@@H]1[C@@H](OC(N)=O)[C@@H](O)[C@H](Oc2ccc3c(O)c(NC(=O)c4ccc(O)c(CC=C(C)C)c4)c(=O)oc3c2C)OC1(C)C [Novobiocin]
fitness, B. subtilis 168
Conditions	first compound 1.5 µg/mL	first compound 3 µg/mL	first compound 6 µg/mL
partner 0.0125 µg/mL	0.932	0.895	0.759
partner 0.025 µg/mL	0.935	0.89	0.727
partner 0.05 µg/mL	0.951	0.914	0.798

fitness, B. subtilis 168, one replicate
Conditions	partner 0.1 µg/mL	partner 0.125 µg/mL	partner 0.2 µg/mL	partner 0.25 µg/mL	partner 0.5 µg/mL
first compound 1.5 µg/mL	0.893	0.827	0.975	0.841	0.511
first compound 3 µg/mL	0.937	0.815	0.989	0.774	0.385
first compound 6 µg/mL	0.827	0.775	0.796	0.726	0.209

O=C(O)[C@H]1/C(=C/CO)O[C@@H]2CC(=O)N21 [Clavulanic acid] + C[C@@H](O)[C@H]1C(=O)N2C(C(=O)O)=C(SCCNC=N)C[C@H]12 [Imipenem]
fitness, S. pneumoniae D39V
Conditions	partner 0.005 µg/mL	partner 0.0065 µg/mL	partner 0.01 µg/mL	partner 0.013 µg/mL	partner 0.02 µg/mL	partner 0.026 µg/mL
first compound 0.5 µg/mL	0.976	0.974	0.987	0.968	0.935	0.883
first compound 1 µg/mL	0.887	0.92	0.899	0.891	0.888	0.892
first compound 2 µg/mL	0.737	0.82	0.724	0.791	0.655	0.789

O=C(O)[C@H]1/C(=C/CO)O[C@@H]2CC(=O)N21 [Clavulanic acid] + O=C1CN(/N=C/c2ccc([N+](=O)[O-])o2)C(=O)N1 [Nitrofurantoin]
fitness, S. pneumoniae D39V
Conditions	partner 1.285 µg/mL	partner 2 µg/mL	partner 2.57 µg/mL	partner 4 µg/mL	partner 8 µg/mL
first compound 0.5 µg/mL	0.916	0.92	0.943	0.878	0.628
first compound 1 µg/mL	0.933	0.887	0.94	0.773	0.544
first compound 2 µg/mL	0.883	0.658	0.874	0.59	0.358

S. pneumoniae D39V, partner 5.14 µg/mL, one replicate
Conditions	fitness
first compound 0.5 µg/mL	0.898
first compound 1 µg/mL	0.852
first compound 2 µg/mL	0.817

O=C(O)[C@H]1/C(=C/CO)O[C@@H]2CC(=O)N21 [Clavulanic acid] + CO/N=C(\C(=O)N[C@@H]1C(=O)N2C(C(=O)O)=C(COC(N)=O)CS[C@H]12)c1ccco1 [Cefuroxime]
fitness, B. subtilis 168
Conditions	first compound 1.5 µg/mL	first compound 3 µg/mL	first compound 6 µg/mL
partner 0.04875 µg/mL	0.661	0.626	0.562
partner 0.0975 µg/mL	0.651	0.607	0.542
partner 0.195 µg/mL	–	0.345	0.359

fitness, B. subtilis 168, one replicate
Conditions	partner 0.39 µg/mL	partner 0.78 µg/mL	partner 1.562 µg/mL	partner 3.125 µg/mL	partner 6.25 µg/mL
first compound 1.5 µg/mL	0.288	0.232	0.353	0.235	0.202
first compound 3 µg/mL	0.0208	0.0871	0.319	0.276	0.238
first compound 6 µg/mL	0.216	0.172	0.241	0.18	0.142

O=C(O)[C@H]1/C(=C/CO)O[C@@H]2CC(=O)N21 [Clavulanic acid] + CCC(C)C1C(=O)NC(=C)C(=O)NC(C(=O)NC(CSCC(C(=O)N1)NC(=O)/C(=C/C)/NC(=O)C(C(C)CC)N)C(=O)NC2C(SCC(NC(=O)CNC(=O)C3CCCN3C2=O)C(=O)NC(CCCCN)C(=O)NC4C(SCC(NC(=O)CNC(=O)C(NC(=O)C(NC(=O)C(NC(=O)CNC4=O)C)CC(C)C)CCSC)C(=O)NC(CC(=O)N)C(=O)NC(CCSC)C(=O)NC(CCCCN)C(=O)NC5C(SCC6C(=O)NC(C(=O)NC(CSC(C(C(=O)N6)NC(=O)C(NC5=O)C)C)C(=O)NC(CO)C(=O)NC(C(C)CC)C(=O)NC(CC7=CN=CN7)C(=O)NC(C(C)C)C(=O)NC(=C)C(=O)NC(CCCCN)C(=O)O)CC8=CN=CN8)C)C)C)CC(C)C [Nisin]
main component drawn
Conditions	fitness
B. subtilis 168, first compound 1.5 µg/mL, partner 0.5 µg/mL	0.814
B. subtilis 168, first compound 1.5 µg/mL, partner 1 µg/mL	0.775
B. subtilis 168, first compound 1.5 µg/mL, partner 2 µg/mL	0.541
B. subtilis 168, first compound 3 µg/mL, partner 0.5 µg/mL	0.797
B. subtilis 168, first compound 3 µg/mL, partner 1 µg/mL	0.769
B. subtilis 168, first compound 3 µg/mL, partner 2 µg/mL	0.595
B. subtilis 168, first compound 6 µg/mL, partner 0.5 µg/mL	0.738
B. subtilis 168, first compound 6 µg/mL, partner 1 µg/mL	0.703
B. subtilis 168, first compound 6 µg/mL, partner 2 µg/mL	0.485
S. pneumoniae D39V, first compound 0.5 µg/mL, partner 0.4275 µg/mL	0.973
S. pneumoniae D39V, first compound 0.5 µg/mL, partner 1.6 µg/mL	0.0053
S. pneumoniae D39V, first compound 0.5 µg/mL, partner 1.71 µg/mL	0.0946
S. pneumoniae D39V, first compound 0.5 µg/mL, partner 3.2 µg/mL	0.0291
S. pneumoniae D39V, first compound 0.5 µg/mL, partner 6.4 µg/mL	0.0063
S. pneumoniae D39V, first compound 1 µg/mL, partner 0.4275 µg/mL	0.982
S. pneumoniae D39V, first compound 1 µg/mL, partner 1.6 µg/mL	0.16
S. pneumoniae D39V, first compound 1 µg/mL, partner 1.71 µg/mL	0.0481
S. pneumoniae D39V, first compound 1 µg/mL, partner 3.2 µg/mL	0.154
S. pneumoniae D39V, first compound 1 µg/mL, partner 6.4 µg/mL	0.16
S. pneumoniae D39V, first compound 2 µg/mL, partner 0.4275 µg/mL	0.929
S. pneumoniae D39V, first compound 2 µg/mL, partner 0.855 µg/mL	0.617
S. pneumoniae D39V, first compound 2 µg/mL, partner 1.6 µg/mL	0.0042
S. pneumoniae D39V, first compound 2 µg/mL, partner 1.71 µg/mL	0.0736
S. pneumoniae D39V, first compound 2 µg/mL, partner 3.2 µg/mL	0.0076
S. pneumoniae D39V, first compound 2 µg/mL, partner 6.4 µg/mL	0.0001

fitness, B. subtilis 168, one replicate, main component drawn
Conditions	partner 1.25 µg/mL	partner 1.6 µg/mL	partner 2.5 µg/mL	partner 3.2 µg/mL	partner 4 µg/mL	partner 5 µg/mL	partner 6.4 µg/mL	partner 8 µg/mL	partner 16 µg/mL
first compound 1.5 µg/mL	0.802	0.697	0.537	0.0178	0.0192	0.0574	0.0673	0.0099	0.0067
first compound 3 µg/mL	0.765	0.733	0.48	0.0108	0.178	0.0615	0.0551	0.0036	0.0134
first compound 6 µg/mL	0.57	0.67	0.182	0.0221	0.117	0.0792	0.0542	0.0002	0

Clc1ccc(COC(Cn2ccnc2)c2ccc(Cl)cc2Cl)c(Cl)c1 (centres undefined) [Miconazole] + Cc1ncc([N+](=O)[O-])n1CCO [Metronidazole]
fitness, S. pneumoniae D39V
Conditions	first compound 1.073 µg/mL	first compound 1.25 µg/mL	first compound 2.145 µg/mL	first compound 2.5 µg/mL	first compound 4.29 µg/mL	first compound 5 µg/mL
partner 1.073 µg/mL	–	0.934	–	0.955	–	0.972
partner 1.25 µg/mL	≥ 1	–	≥ 1	–	0.99	–
partner 2.145 µg/mL	–	0.932	–	0.858	–	0.846
partner 2.5 µg/mL	≥ 1	–	≥ 1	–	0.888	–
partner 4.29 µg/mL	–	0.905	–	0.884	–	0.94
partner 5 µg/mL	≥ 1	–	≥ 1	–	0.984	–
